{"source": "ChEMBL document CHEMBL6177988", "about": "“Design, synthesis, biophysical and biological evaluation of original condensed pyrrolopyrimidine and pyrrolopyridine ligands as anti-SARS-CoV-2 agents targeting G4” (Eur J Med Chem, 2025)", "key": {"[1]": {"tested_on": "Non-structural protein 3/TRF2 G-quadruplex ribonucleic acid", "assay": "Inhibition of N-terminal His-tagged SARS-CoV-2 Nsp3 SUD-NM domain (413-676 residues)/SARS-CoV-2 TRF2 G-quadruplex RNA incubated for 2 hrs by HTRF assay", "assay_type": "protein assay, Severe acute respiratory syndrome coronavirus 2"}, "Quadruplex DNA [2]": {"tested_on": "Quadruplex DNA", "assay": "Thermal stabilization of human telomeric G-quadruplex F21T DNA (FAM-5'-GGGTTAGGGTTAGGGTTAGGG-3'-TAMRA) assessed as change in half-width of melting temperature at 2 uM by FRET-melting assay", "assay_type": "nucleic-acid assay"}, "Quadruplex DNA [3]": {"tested_on": "Quadruplex DNA", "assay": "Thermal stabilization of human telomeric G-quadruplex F21T DNA (FAM-5'-GGGTTAGGGTTAGGGTTAGGG-3'-TAMRA) assessed as change in half-width of melting temperature at 1 uM by FRET-melting assay", "assay_type": "nucleic-acid assay"}, "[4]": {"assay": "Cytotoxicity against human A549 cells harboring ACE2-CI33 assessed as cell viability by celltiter glo assay", "assay_type": "toxicity, cell-based"}, "[5]": {"assay": "Cytotoxicity against human Caco-2 cells harboring ACE2-CI33 assessed as cell viability by celltiter glo assay", "assay_type": "toxicity, cell-based"}, "Quadruplex DNA [6]": {"tested_on": "Quadruplex DNA", "assay": "Thermal stabilization of human telomeric G-quadruplex F21T DNA (FAM-5'-GGGTTAGGGTTAGGGTTAGGG-3'-TAMRA) assessed as change in half-width of melting temperature at 0.5 uM by FRET-melting assay", "assay_type": "nucleic-acid assay"}}, "data": [{"smiles": "CN(C)CCCCNCc1ccc(-c2nc(-c3ccc(CNCCCCN(C)C)cc3)c3ccn(-c4ccc(CNCCCCN(C)C)cc4)c3n2)cc1", "values": [{"measurement": "IC50", "setting": "[1]", "value": 0.048, "unit": "µM"}, {"measurement": "deltaTm1/2", "setting": "Quadruplex DNA [2]", "value": "> 36", "unit": "°C"}, {"measurement": "deltaTm1/2", "setting": "Quadruplex DNA [3]", "value": 23.8, "unit": "°C"}]}, {"smiles": "CN(C)CCCCNCc1ccc(-c2cn(-c3ccccc3)c3ncnc(-c4ccc(CNCCCCN(C)C)cc4)c23)cc1", "values": [{"measurement": "IC50", "setting": "[1]", "value": "> 0.5", "unit": "µM"}, {"measurement": "deltaTm1/2", "setting": "Quadruplex DNA [2]", "value": 13.1, "unit": "°C"}]}, {"smiles": "CN(C)CCCNCc1ccc(-c2nc(-c3ccc(CNCCCN(C)C)cc3)c3ccn(-c4ccccc4)c3n2)cc1", "values": [{"measurement": "IC50", "setting": "[1]", "value": 0.137, "unit": "µM"}, {"measurement": "deltaTm1/2", "setting": "Quadruplex DNA [2]", "value": 25.9, "unit": "°C"}]}, {"smiles": "CN(C)CCCCNCc1ccc(-c2cc(-c3ccc(CNCCCCN(C)C)cc3)c3ccn(-c4ccccc4)c3c2)cc1", "values": [{"measurement": "CC50", "setting": "[4]", "value": 2.83, "unit": "µM"}, {"measurement": "IC50", "setting": "[1]", "value": 0.075, "unit": "µM"}, {"measurement": "deltaTm1/2", "setting": "Quadruplex DNA [2]", "value": 23.7, "unit": "°C"}, {"measurement": "CC50 at 75 h", "setting": "[5]", "value": 2.14, "unit": "µM"}]}, {"smiles": "CN(C)CCCCNCc1ccc(-c2ccc3ccc4ccc(-c5ccc(CNCCCCN(C)C)cc5)nc4c3n2)cc1", "values": [{"measurement": "CC50", "setting": "[4]", "value": "> 10", "unit": "µM"}, {"measurement": "IC50", "setting": "[1]", "value": 0.0312, "unit": "µM"}, {"measurement": "deltaTm1/2", "setting": "Quadruplex DNA [2]", "value": 18.5, "unit": "°C"}]}, {"smiles": "CN(C)CCCCNCc1ccc(-c2cc3c(ccn3-c3ccccc3)c(-c3ccc(CNCCCCN(C)C)cc3)n2)cc1", "values": [{"measurement": "IC50", "setting": "[1]", "value": 0.087, "unit": "µM"}, {"measurement": "deltaTm1/2", "setting": "Quadruplex DNA [2]", "value": 21, "unit": "°C"}]}, {"smiles": "CN(C)CCCCNCc1ccc(-c2nc(-c3ccc(CNCCCCN(C)C)cc3)c3c(ccn3-c3ccccc3)n2)cc1", "values": [{"measurement": "IC50", "setting": "[1]", "value": 0.09, "unit": "µM"}, {"measurement": "deltaTm1/2", "setting": "Quadruplex DNA [2]", "value": 18.6, "unit": "°C"}]}, {"smiles": "CN(C)CCCNCc1ccc(-c2cn(-c3ccc(CNCCCN(C)C)cc3)c3ncnc(-c4ccc(CNCCCN(C)C)cc4)c23)cc1", "values": [{"measurement": "IC50", "setting": "[1]", "value": 0.046, "unit": "µM"}, {"measurement": "deltaTm1/2", "setting": "Quadruplex DNA [2]", "value": 20.3, "unit": "°C"}]}, {"smiles": "CN(C)CCCCNCc1ccc(-c2nc(-c3ccc(CNCCCCN(C)C)cc3)c3ncn(-c4ccccc4)c3n2)cc1", "values": [{"measurement": "IC50", "setting": "[1]", "value": 0.079, "unit": "µM"}, {"measurement": "deltaTm1/2", "setting": "Quadruplex DNA [2]", "value": 31.7, "unit": "°C"}]}, {"smiles": "CC(C)CCCCNCc1ccc(-c2cc(-c3ccc(CNCCCCC(C)C)cc3)c3ccn(-c4ccccc4)c3c2)cc1", "values": [{"measurement": "IC50", "setting": "[1]", "value": "> 0.5", "unit": "µM"}, {"measurement": "deltaTm1/2", "setting": "Quadruplex DNA [2]", "value": 4, "unit": "°C"}]}, {"smiles": "CN(C)CCCCNCc1ccc(-c2cc(-c3ccc(CNCCCCN(C)C)cc3)c3ccn(-c4ccccc4)c3n2)cc1", "values": [{"measurement": "IC50", "setting": "[1]", "value": 0.223, "unit": "µM"}, {"measurement": "deltaTm1/2", "setting": "Quadruplex DNA [2]", "value": 26.3, "unit": "°C"}]}, {"smiles": "CN(C)CCCCCNCc1ccc(-c2nc(-c3ccc(CNCCCCCN(C)C)cc3)c3ncn(-c4ccccc4)c3n2)cc1", "values": [{"measurement": "IC50", "setting": "[1]", "value": 0.103, "unit": "µM"}, {"measurement": "deltaTm1/2", "setting": "Quadruplex DNA [2]", "value": 34, "unit": "°C"}]}, {"smiles": "CN(C)CCCCCNCc1ccc(-c2cc3c(ccn3-c3ccccc3)c(-c3ccc(CNCCCCCN(C)C)cc3)n2)cc1", "values": [{"measurement": "IC50", "setting": "[1]", "value": "> 0.2", "unit": "µM"}, {"measurement": "deltaTm1/2", "setting": "Quadruplex DNA [2]", "value": 22.6, "unit": "°C"}]}, {"smiles": "CN(C)CCCCCNCc1ccc(-c2cn(-c3ccccc3)c3ncnc(-c4ccc(CNCCCCCN(C)C)cc4)c23)cc1", "values": [{"measurement": "IC50", "setting": "[1]", "value": 0.14, "unit": "µM"}, {"measurement": "deltaTm1/2", "setting": "Quadruplex DNA [2]", "value": 14.8, "unit": "°C"}]}, {"smiles": "CCN(CC)CCCCNCc1ccc(-c2cc3c(ccn3-c3ccccc3)c(-c3ccc(CNCCCCN(CC)CC)cc3)n2)cc1", "values": [{"measurement": "IC50", "setting": "[1]", "value": 0.446, "unit": "µM"}, {"measurement": "deltaTm1/2", "setting": "Quadruplex DNA [2]", "value": 28.7, "unit": "°C"}]}, {"smiles": "CN1CCN(CCCCNCc2ccc(-c3nc(-c4ccc(CNCCCCN5CCN(C)CC5)cc4)c4ncn(-c5ccccc5)c4n3)cc2)CC1", "values": [{"measurement": "IC50", "setting": "[1]", "value": 0.115, "unit": "µM"}, {"measurement": "deltaTm1/2", "setting": "Quadruplex DNA [2]", "value": 30.2, "unit": "°C"}]}, {"smiles": "CN1CCN(CCCCNCc2ccc(-c3ccc4ccc5ccc(-c6ccc(CNCCCCN7CCN(C)CC7)cc6)nc5c4n3)cc2)CC1", "values": [{"measurement": "CC50", "setting": "[4]", "value": "> 10", "unit": "µM"}, {"measurement": "IC50", "setting": "[1]", "value": 0.0314, "unit": "µM"}, {"measurement": "deltaTm1/2", "setting": "Quadruplex DNA [2]", "value": 24.1, "unit": "°C"}]}, {"smiles": "O=C(O[C@@H]1Cc2c(O)cc(O)cc2O[C@@H]1c1cc(O)c(=O)c2c(O)c(O)cc([C@H]3Oc4cc(O)cc(O)c4C[C@H]3OC(=O)c3cc(O)c(O)c(O)c3)c2c1)c1cc(O)c(O)c(O)c1", "values": [{"measurement": "deltaTm1/2", "setting": "Quadruplex DNA [2]", "value": 0.9, "unit": "°C"}]}, {"smiles": "O=c1c(O)cc([C@H]2Oc3cc(O)cc(O)c3C[C@H]2O)cc2c([C@H]3Oc4cc(O)cc(O)c4C[C@H]3O)cc(O)c(O)c12", "note": "[THEAFLAVIN]", "values": [{"measurement": "IC50", "setting": "[1]", "value": "> 0.5", "unit": "µM"}]}, {"smiles": "CN(C)CCCCNCc1ccc(-c2nc(-c3ccccc3)c3ccn(-c4ccc(CNCCCCN(C)C)cc4)c3n2)cc1", "values": [{"measurement": "IC50", "setting": "[1]", "value": 0.097, "unit": "µM"}, {"measurement": "deltaTm1/2", "setting": "Quadruplex DNA [2]", "value": 26.4, "unit": "°C"}]}, {"smiles": "CN1CCN(CCCCNCc2ccc(-c3cc(-c4ccc(CNCCCCN5CCN(C)CC5)cc4)c4ccn(-c5ccccc5)c4c3)cc2)CC1", "values": [{"measurement": "IC50", "setting": "[1]", "value": 0.074, "unit": "µM"}, {"measurement": "deltaTm1/2", "setting": "Quadruplex DNA [2]", "value": 20.4, "unit": "°C"}]}, {"smiles": "CN(C)CCCNCc1ccc(-c2nc(-c3ccc(CNCCCN(C)C)cc3)c3ccn(-c4ccc(CNCCCN(C)C)cc4)c3n2)cc1", "values": [{"measurement": "IC50", "setting": "[1]", "value": 0.05, "unit": "µM"}, {"measurement": "deltaTm1/2", "setting": "Quadruplex DNA [2]", "value": 34.9, "unit": "°C"}, {"measurement": "CC50 at 75 h", "setting": "[5]", "value": "≥ 7.2", "unit": "µM"}]}, {"smiles": "C[n+]1cc(NC(=O)c2ccc3ccc4ccc(C(=O)Nc5cc6ccccc6[n+](C)c5)nc4c3n2)cc2ccccc21", "values": [{"measurement": "deltaTm1/2", "setting": "Quadruplex DNA [6]", "value": 21.2, "unit": "°C"}]}, {"smiles": "CN(C)CCCCCNCc1ccc(-c2cc(-c3ccc(CNCCCCCN(C)C)cc3)c3ccn(-c4ccccc4)c3c2)cc1", "values": [{"measurement": "CC50", "setting": "[4]", "value": 3.01, "unit": "µM"}, {"measurement": "IC50", "setting": "[1]", "value": 0.09, "unit": "µM"}, {"measurement": "deltaTm1/2", "setting": "Quadruplex DNA [2]", "value": 30.9, "unit": "°C"}, {"measurement": "CC50 at 75 h", "setting": "[5]", "value": 2.32, "unit": "µM"}]}]}
